Measured values from patent US20250290928A1, “METHOD, KIT AND DEVICE FOR DETECTING EXTRACELLULAR VESICLES” (priority 2022, published 2025).
*: point of attachment. 5FAM = O=C1OC2(c3ccc(O)cc3Oc3cc(O)ccc32)c2ccc(C(=O)*)cc21; TQ2 = quencher

Key:
[1] = system: MMP14 in the HT1080 culture supernatants and the culture medium samples; test: Evaluation of MMP14 activity of HT1080 culture supernatants, culture media and recovered liquids (exoEasy, qEV) with 96-well plate; format: biochemical, Human; conditions: for Fluorescence change: after 2 hours; for change in fluorescence intensity after 2 hours: reporter 2.5 μM, 30° C.
Description: The MMP14 activity was evaluated with a 96-well plate (manufactured by Thermo Fisher Scientific Inc., model number: 137101). […] For measurement wavelengths, an excitation wavelength of 485±20 nm and a fluorescence wavelength of 528±20 nm were used.
Human fibrosarcoma HT1080 cells (KAC Co., Ltd.) were cultured in three kinds of cell culture media described later. In addition, 100 mm cell culture Dish (Nunclon Delta Surface) (manufactured by Thermo Fisher Scientific Inc.) was used as a cell culture container.
Each of the culture supernatants was recovered from each of the dishes in a centrifuge tube, and centrifuged at 2,000×g for 10 minutes at 4° C. Each of the supernatants after the centrifugation was recovered in a fresh container with a small amount of the culture medium remaining so as not to incorporate the precipitated cells. Each of the culture supernatants was filtered through a syringe with a 0.22 μm filter (manufactured by Merck KGaA) so that contaminants such as cell fragments were removed. After that, the filtrate was recovered in a fresh container, and stored at 4° C.
From each of the HT1080 culture supernatants described in the section “(Recovery of Culture Supernatant)”, 100 μL of each of the supernatants after centrifugation and 100 μL of each of the supernatants after filtration through a 0.22 μm filter were each aliquoted, and the buffer (4) was added to the aliquots to provide 1 mL of solutions. The concentration of each of the solutions is 1/10 of the concentration of each of the HT1080 culture supernatants.
In addition, for detection of MMP14 activity, 1 mM Custom #1 was diluted with the buffer (4) to prepare a 5 μM MMP14 detection solution.
50 μL of the MMP14 detection solution was added to 50 μL of each of the samples, a reaction was performed at 30° C., and MMP14 activity was evaluated.
Extracellular vesicles were recovered from 3 mL of each of the recovered culture supernatants with exoEasy Maxi Kit. In this case, the recovery was performed according to the protocol included in the kit. From 3 mL of each of the culture supernatants, 450 μL of each of recovered liquids was obtained. Each of the recovered liquids has a concentration 6.67 times the original concentration of each of the culture supernatants. Each of the recovered liquids was diluted 66.7-fold to prepare 100 μL of a sample at 1/10 of the original concentration of each of the culture supernatants.
Extracellular vesicles were recovered from 3 mL of each of the recovered culture supernatants with qEV. In this case, the recovery was performed according to the protocol included in the kit. From 3 mL of each of the culture supernatants, 700 μL of each of fraction recovered liquids in series was obtained. Each of the recovered liquids was used as a sample as it was.

[2] = target: T1, MMP14 in the HT1080 culture supernatants and the culture medium samples (Homo sapiens, UniProt P50281); test: Digital detection of MMP14 active component in HT1080 culture supernatants, culture media and recovered liquids in wells; format: biochemical; conditions: for MMP14 active component concentration: HT1080 culture Present
T1 construct: host or cells: HT1080 culture supernatant
Description: In addition, for detection of MMP14 activity, 1 mM Custom #1 was diluted with the buffer (4) to prepare a MMP14 detection solution containing 5 μM Custom #1 and 2 μM Alexa Fluor 647.

[5-FAM]GRIGFLRTAK(TQ2)[OH] (5FAM-GRIGFLRTAK(TQ2)-OH) [Custom #1]
Fluorescence change ([1]; Culture medium Exo-FBS, HT1080 culture Absent, None (VI)): 50,117 ΔRFU | Fluorescence change ([1]; Culture medium Exo-FBS, HT1080 culture Present, Centrifugation + filtration (V)): 45,429 ΔRFU | Fluorescence change ([1]; Culture medium Exo-FBS, HT1080 culture Present, Only centrifugation (IV)): 46,172 ΔRFU | Fluorescence change ([1]; Culture medium FBS, HT1080 culture Absent, None (III)): 66,945 ΔRFU | Fluorescence change ([1]; Culture medium FBS, HT1080 culture Present, Centrifugation + filtration (II)): 65,200 ΔRFU | Fluorescence change ([1]; Culture medium FBS, HT1080 culture Present, Only centrifugation (I)): 64,773 ΔRFU | Fluorescence change ([1]; Culture medium MEM (×10, supernatant without dilution), HT1080 culture Present, Centrifugation + filtration): 1,515 ΔRFU | Fluorescence change ([1]; Culture medium MEM (×10, supernatant without dilution), HT1080 culture Present, Only centrifugation): 2,494 ΔRFU | Fluorescence change ([1]; Culture medium MEM, HT1080 culture Absent, None (IX)): −311 ΔRFU | Fluorescence change ([1]; Culture medium MEM, HT1080 culture Present, Centrifugation + filtration (VIII)): 186 ΔRFU | Fluorescence change ([1]; Culture medium MEM, HT1080 culture Present, Only centrifugation (VII)): −240 ΔRFU | change in fluorescence intensity after 2 hours ([1]; Example 56, exoEasy recovered liquid from the Exo-FBS): the fluorescence intensity was changed | change in fluorescence intensity after 2 hours ([1]; Example 56, exoEasy recovered liquid from the MEM): no change in fluorescence intensity was recognized | Fluorescence change ([1]; exoEasy recovered liquid, Culture medium Exo-FBS, HT1080 culture Present): 6,663 ΔRFU | Fluorescence change ([1]; exoEasy recovered liquid, Culture medium MEM, HT1080 culture Present): −313 ΔRFU | Fluorescence change ([1]; qEV recovered liquid, Exo-FBS, HT1080 culture Present, Fraction # 1): 336 ΔRFU | Fluorescence change ([1]; qEV recovered liquid, Exo-FBS, HT1080 culture Present, Fraction # 2): 318 ΔRFU | Fluorescence change ([1]; qEV recovered liquid, Exo-FBS, HT1080 culture Present, Fraction # 3): 271 ΔRFU | Fluorescence change ([1]; qEV recovered liquid, Exo-FBS, HT1080 culture Present, Fraction # 4): 285 ΔRFU | Fluorescence change ([1]; qEV recovered liquid, Exo-FBS, HT1080 culture Present, Fraction # 5): 302 ΔRFU | Fluorescence change ([1]; qEV recovered liquid, Exo-FBS, HT1080 culture Present, Fraction # 6): 325 ΔRFU | Fluorescence change ([1]; qEV recovered liquid, Exo-FBS, HT1080 culture Present, Fraction # 7): 1,869 ΔRFU | Fluorescence change ([1]; qEV recovered liquid, Exo-FBS, HT1080 culture Present, Fraction # 8): 7,249 ΔRFU | Fluorescence change ([1]; qEV recovered liquid, Exo-FBS, HT1080 culture Present, Fraction # 9): 9,417 ΔRFU | Fluorescence change ([1]; qEV recovered liquid, Exo-FBS, HT1080 culture Present, Fraction # 10): 17,731 ΔRFU | Fluorescence change ([1]; qEV recovered liquid, Exo-FBS, HT1080 culture Present, Fraction # 11): 30,226 ΔRFU | Fluorescence change ([1]; qEV recovered liquid, Exo-FBS, HT1080 culture Present, Fraction # 12): 44,826 ΔRFU | Fluorescence change ([1]; qEV recovered liquid, Exo-FBS, HT1080 culture Present, Fraction # 13): 61,704 ΔRFU | Fluorescence change ([1]; qEV recovered liquid, Exo-FBS, HT1080 culture Present, Fraction # 14): 76,810 ΔRFU | Fluorescence change ([1]; qEV recovered liquid, MEM, HT1080 culture Present, Fraction # 1): 245 ΔRFU | Fluorescence change ([1]; qEV recovered liquid, MEM, HT1080 culture Present, Fraction # 2): 285 ΔRFU | Fluorescence change ([1]; qEV recovered liquid, MEM, HT1080 culture Present, Fraction # 3): 245 ΔRFU | Fluorescence change ([1]; qEV recovered liquid, MEM, HT1080 culture Present, Fraction # 4): 304 ΔRFU | Fluorescence change ([1]; qEV recovered liquid, MEM, HT1080 culture Present, Fraction # 5): 1,450 ΔRFU | Fluorescence change ([1]; qEV recovered liquid, MEM, HT1080 culture Present, Fraction # 6): 697 ΔRFU | Fluorescence change ([1]; qEV recovered liquid, MEM, HT1080 culture Present, Fraction # 7): 10,198 ΔRFU | Fluorescence change ([1]; qEV recovered liquid, MEM, HT1080 culture Present, Fraction # 8): 11,966 ΔRFU | Fluorescence change ([1]; qEV recovered liquid, MEM, HT1080 culture Present, Fraction # 9): 1,424 ΔRFU | Fluorescence change ([1]; qEV recovered liquid, MEM, HT1080 culture Present, Fraction # 10): 550 ΔRFU | Fluorescence change ([1]; qEV recovered liquid, MEM, HT1080 culture Present, Fraction # 11): 506 ΔRFU | Fluorescence change ([1]; qEV recovered liquid, MEM, HT1080 culture Present, Fraction # 12): 536 ΔRFU | Fluorescence change ([1]; qEV recovered liquid, MEM, HT1080 culture Present, Fraction # 13): 489 ΔRFU | Fluorescence change ([1]; qEV recovered liquid, MEM, HT1080 culture Present, Fraction # 14): 446 ΔRFU | MMP14 active component concentration ([2]; Experiment condition (I): FBS, only centrifugation, Reaction 4 hr): 3.611e+11 mL⁻¹ | MMP14 active component concentration ([2]; Experiment condition (I): FBS, only centrifugation, Reaction 24 hr): 3.753e+11 mL⁻¹ | MMP14 active component concentration ([2]; Experiment condition (II): FBS, centrifugation + filtration, Reaction 4 hr): 3.042e+11 mL⁻¹ | MMP14 active component concentration ([2]; Experiment condition (II): FBS, centrifugation + filtration, Reaction 24 hr): 3.0889e+11 mL⁻¹ | MMP14 active component concentration ([2]; Experiment condition (IV): Exo-FBS, only centrifugation, Reaction 4 hr): 2.013e+11 mL⁻¹ | MMP14 active component concentration ([2]; Experiment condition (IV): Exo-FBS, only centrifugation, Reaction 24 hr): 1.981e+11 mL⁻¹ | MMP14 active component concentration ([2]; Experiment condition (V): Exo-FBS, centrifugation + filtration, Reaction 4 hr): 2.275e+11 mL⁻¹ | MMP14 active component concentration ([2]; Experiment condition (V): Exo-FBS, centrifugation + filtration, Reaction 24 hr): 2.309e+11 mL⁻¹ | MMP14 active component concentration ([2]; Experiment condition (VII): MEM, only centrifugation, Reaction 4 hr): 1.341e+09 mL⁻¹ | MMP14 active component concentration ([2]; Experiment condition (VII): MEM, only centrifugation, Reaction 24 hr): 4.02e+09 mL⁻¹ | MMP14 active component concentration ([2]; Experiment condition (VIII): MEM, centrifugation + filtration, Reaction 4 hr): 2.057e+09 mL⁻¹ | MMP14 active component concentration ([2]; Experiment condition (VIII): MEM, centrifugation + filtration, Reaction 24 hr): 4.426e+09 mL⁻¹ | MMP14 extracellular vesicle concentration ([2]; HT1080 culture supernatant recovered with exoEasy, Exo-FBS, Reaction 4 hr): 1.39e+11 mL⁻¹ | MMP14 extracellular vesicle concentration ([2]; HT1080 culture supernatant recovered with exoEasy, Exo-FBS, Reaction 24 hr): 2.053e+11 mL⁻¹ | MMP14 extracellular vesicle concentration ([2]; HT1080 culture supernatant recovered with exoEasy, MEM, Reaction 4 hr): 1.885e+09 mL⁻¹ | MMP14 extracellular vesicle concentration ([2]; HT1080 culture supernatant recovered with exoEasy, MEM, Reaction 24 hr): 4.428e+09 mL⁻¹ | MMP14 extracellular vesicle concentration ([2]; qEV recovered liquid, Exo-FBS, Fraction # 8, 4 hours of reaction): 1.1833e+10 mL⁻¹ | MMP14 extracellular vesicle concentration ([2]; qEV recovered liquid, Exo-FBS, Fraction # 9, 4 hours of reaction): 2.8135e+10 mL⁻¹ | MMP14 extracellular vesicle concentration ([2]; qEV recovered liquid, Exo-FBS, Fraction # 10, 4 hours of reaction): 5.6859e+10 mL⁻¹ | MMP14 extracellular vesicle concentration ([2]; qEV recovered liquid, Exo-FBS, Fraction # 11, 4 hours of reaction): 5.8114e+10 mL⁻¹ | MMP14 extracellular vesicle concentration ([2]; qEV recovered liquid, Exo-FBS, Fraction # 12, 4 hours of reaction): 5.8598e+10 mL⁻¹ | MMP14 extracellular vesicle concentration ([2]; qEV recovered liquid, Exo-FBS, Fraction # 13, 4 hours of reaction): 5.2408e+10 mL⁻¹ | MMP14 extracellular vesicle concentration ([2]; qEV recovered liquid, Exo-FBS, Fraction # 14, 4 hours of reaction): 7.8483e+10 mL⁻¹ | MMP14 extracellular vesicle concentration ([2]; qEV recovered liquid, Exo-FBS, Fraction # 15, 4 hours of reaction): 1.2532e+11 mL⁻¹ | MMP14 extracellular vesicle concentration ([2]; qEV recovered liquid, MEM, Fraction # 7, 4 hours of reaction): 1.5912e+10 mL⁻¹ | MMP14 extracellular vesicle concentration ([2]; qEV recovered liquid, MEM, Fraction # 8, 4 hours of reaction): 7.493e+09 mL⁻¹ | MMP14 extracellular vesicle concentration ([2]; qEV recovered liquid, MEM, Fraction # 9, 4 hours of reaction): 6.37e+09 mL⁻¹ | MMP14 extracellular vesicle concentration ([2]; qEV recovered liquid, MEM, Fraction # 10, 4 hours of reaction): 7.04e+08 mL⁻¹ | MMP14 extracellular vesicle concentration ([2]; qEV recovered liquid, MEM, Fraction # 11, 4 hours of reaction): 4.42e+08 mL⁻¹ | MMP14 extracellular vesicle concentration ([2]; qEV recovered liquid, MEM, Fraction # 12, 4 hours of reaction): 4.64e+08 mL⁻¹ | MMP14 extracellular vesicle concentration ([2]; qEV recovered liquid, MEM, Fraction # 13, 4 hours of reaction): 9.78e+08 mL⁻¹ | MMP14 extracellular vesicle concentration ([2]; qEV recovered liquid, MEM, Fraction # 14, 4 hours of reaction): 3e+07 mL⁻¹
